Measured values reported in patent US9351971B2, “Substituted 2,2′-biphenazines for treating diseases” (Eutropics Pharmaceuticals, Inc., priority 2010, dated 2016).
“Also recorded” adds a separate entry of the source.

Assays:
[1] = tested on: NCI-H929 multiple myeloma cell line; test: Cell viability MTS assay, NCI-H929; assay type: cell-based; settings: Homo sapiens, 48 hours, read-out: EC50, cell killing in NCI-H929
Protocol: (§1) The lymphoid derived cell lines DHL-6 and DHL-10 were obtained from Anthony Letai of the Dana Father Cancer Research Institute, Boston, Mass. The […] derived cell line NCP-H929 was obtained irons, the NIH/NCI cell repository. AML-3 cells were obtained from Dr. Michael Andreef (MD Anderson Cancer Center, Houston, Tex.). Cells were grown in RPMI 1640 medium (GIBCO-BRL) supplemented with Pen-strep-glutamine (Gibco 10378) and 5% fetal bovine serum.
(§2) Cells were expanded in tissue culture in appropriate media and then subcultured into 96-well plates at a seeding density of 20,000-40,000 cells per well, and cells were treated with one or more compounds that were titrated info appropriate medium with FCS. Cell lines were treated with compound A at concentrations ranging from 25 μM to 25 nM. The BH3-mimetic obatoclax (Nguyen M et al. (2007), Proc. Natl. Acad. Sci. USA 104:19512-19517) was also tested against the SUDHL-6, SUDHL-10, and NCI-H929 cell lines. Cells were treated for 48 hours and scored for viability using the MTS assay (Promega). Growth inhibition was indicated as a percentage of control cell growth. Growth was determined by measuring the A570 (control cells)—A570 (treated cells)/A570 (control cells). EC50 values were calculated using Graphpad Prizm software.

[2] = tested on: mitochondria in semi-permeabilized SUDHL-10 cells; test: In situ mitochondrial assay (cytochrome c release), SUDHL-10; assay type: cell-based; settings: SUDHL-10 (DHL-10), Bax/Bak deficient, 10 uM
Excerpt: (§3) The on-target activity of compound II-19 was validated. Changes in mitochondrial integrity were observed utilizing anti-cytochrome c conjugated to Alcxa488 (BD). When the mitochondria are intact, they retain cytochrome c and have bright, punctate staining with the antibody whereas cells with compromised mitochondrial integrity will lose cytochrome c and will not stain with the antibody. This can be observed by microscopy as well as measured by a shift in fluorescence on the FL1 channel of a flow cytometer.
(§4) The selective response of mitochondria in semi-permeabilized cell lines to the compounds was observed. The assay was adapted from (Campos et al. (2006) Cytometry Part A. 69(A):515-523).
(§5) Suspension cell lines SUDHL10 and SUDHL6 were grown in RPMI, washed once in 1xPBS and re-suspended at a concentration of 2e6/ml in assay buffer with 0.0025% Digitonin. Assay buffer; 300 mM Trehalose, 10 mM HEPES-KOH pH 7.7, 80 mM KCl, 1 mM EGTA, 1 mM EDTA, 0.1% BSA, 5 mM Succinate. Cells are incubated with test and control compounds at 10^6 cells/treatment for 1 hour at room temperature. […] Cytochrome c loss was measured by microscopy. At least 100 cells per treatment were counted and scored as positive for cytochrome c loss if they lacked staining. In both methods DMSO was calculated as 0% cytochrome c loss and the Bim response for DHL6 was used to determine 100% cytochrome c loss.

[3] = tested on: SUDHL-6 lymphoid cell line; test: Cell viability MTS assay, SUDHL-6; assay type: cell-based; settings: Homo sapiens, SU-DHL-6, 48 hours, read-out: EC50, cell killing in SUDHL-6
Protocol: as §1, §2

[4] = tested on: mitochondria in semi-permeabilized SUDHL-6 cells; test: In situ mitochondrial assay (cytochrome c release), SUDHL-6; assay type: cell-based; settings: SUDHL-6 (DHL-6), Bax/Bak functional, 10 uM
Excerpt: as §3, §4, §5

[5] = biological target: T1, Bcl-xL (Homo sapiens, UniProt Q07817); test: Fluorescence polarization assay, Bim BH3 peptide binding to GST-Bcl-xL; settings: Bim-BH3-FITC peptide, read-out: IC50, inhibition of Bim-BH3 peptide binding to Bcl-xL
T1 construct: made in house; host or cells: E. coli
Excerpt: A nineteen amino acid peptide, corresponding to the BH3 domain of Bim, with the sequence FITC-GGGIAQELRRIGDEFNAY (SEQ ID NO: 1) was labeled with the tluorophore FITC according to the manufacturer's instructions (Molecular Probes, Eugene, Oreg.). This sequence was identified as being able to bind to purified Bcl-xL protein (Sattler et al. (1997) Science 275(5302): 983-86) and to have biological activity in cells (Holinger et al. J. Biol. Chem. 274; 13298-1330).
In addition, recombinant GST -Mcl-1 and GST-Bcl-xL fusion proteins were generated in E.coli and purified using glutathione-sepharose beads using conventional techniques known to those skilled in the fields of biochemistry and molecular biology, (methods for preparation are described in Strategies for Protein Purification and Characterization, Marshak, D, Kadonga, J, Burgess R, Knuth, M, Brennan, W, Sue-Hwa, L, CSH press, Cold Spring Harbor, N.Y.). Binding of the recombinant proteins to the fluorescent Bim BH3 domain was confirmed by titration of increasing concentrations of the recombinant proteins against a constant amount of labeled Bim peptide (16.65 nM). Quantitation of binding was accomplished by FP assay with mP measurements made on the Analyst-GT reader (Molecular Devices, Sunnyvale, Calif.).
Further, the ability of compound A to disrupt the interaction between the fluorescent Bim BH3 peptide and the two fusion proteins was assessed using a fluorescence polarization assay. […]
(§6) Experiments are performed using the fluorescence polarization assay as described in Example 2. […] The IC50 for blocking each BH3 peptide from Mcl-1 are assessed using FP, as described in Example 2.
as §6

T1 sequence (Q07817 whole entry): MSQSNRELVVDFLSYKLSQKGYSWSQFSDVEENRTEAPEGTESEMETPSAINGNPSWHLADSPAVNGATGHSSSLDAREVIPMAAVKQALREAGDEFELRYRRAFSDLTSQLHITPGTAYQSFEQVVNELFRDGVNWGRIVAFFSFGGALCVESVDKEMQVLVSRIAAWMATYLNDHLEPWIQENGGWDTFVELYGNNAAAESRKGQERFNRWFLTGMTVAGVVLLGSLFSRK

IC50 [5]: 15 nM
SMILES: COC(=O)c1ccc(O)c2nc3c(C=O)c(O)c(-c4c(O)c(C=O)c5nc6c(O)ccc(C(=O)OC)c6nc5c4O)c(O)c3nc12 [II-19, dimethyl 4,4′-diformyl-1,1′,3,3′,6,6′-hexahydroxy-[2,2′-biphenazine]-9,9′-dicarboxylate]
EC50 [1]: 8000 nM | cytochrome c release from mitochondria [2]: but not BAX/BAK-deficient SUDHL-10 cell line; also recorded: lack of activity | EC50 [3]: 3000 nM | cytochrome c release from mitochondria [4]: causes release of cytochrome c; also recorded: direct activity
